Measured values as given in ChEMBL document CHEMBL1201862, “PubChem BioAssay data set” (2004).
The source made the active and inactive calls.

Experiments:
[1] = viability of uninfected HEp-2 cells – cell-based, HTS, cytotoxicity control for RSV inhibitor project, dose response (AID 2410); type: functional; conditions: human respiratory syncytial virus
Cysteine protease ATG4B = Cysteine protease ATG4B (Homo sapiens, UniProt Q9Y4P1); type: functional;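 note: Fluorescence-based dose-response confirmation assay measuring inhibition of ATG4B activity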
Cysteine protease ATG4B, sequence (Q9Y4P1 whole entry): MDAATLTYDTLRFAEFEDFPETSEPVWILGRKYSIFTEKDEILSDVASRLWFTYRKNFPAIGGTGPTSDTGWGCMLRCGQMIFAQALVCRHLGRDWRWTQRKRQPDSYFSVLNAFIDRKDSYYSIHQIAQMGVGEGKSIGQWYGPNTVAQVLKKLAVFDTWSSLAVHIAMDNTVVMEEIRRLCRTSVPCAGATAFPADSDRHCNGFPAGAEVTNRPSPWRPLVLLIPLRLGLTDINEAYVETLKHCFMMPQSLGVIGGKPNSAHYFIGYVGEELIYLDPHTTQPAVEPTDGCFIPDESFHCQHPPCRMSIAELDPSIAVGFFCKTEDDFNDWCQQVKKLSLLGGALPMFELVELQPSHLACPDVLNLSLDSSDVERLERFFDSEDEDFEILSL

Phospholipase A2 = Phospholipase A2 (Homo sapiens, UniProt P04054); type: functional;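 note: confirmatory dose-response counterscreen on phospholipase A2, testing hits that came from an ultra-high-throughput screen for ATG4B inhibitors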
Phospholipase A2, sequence (P04054 whole entry): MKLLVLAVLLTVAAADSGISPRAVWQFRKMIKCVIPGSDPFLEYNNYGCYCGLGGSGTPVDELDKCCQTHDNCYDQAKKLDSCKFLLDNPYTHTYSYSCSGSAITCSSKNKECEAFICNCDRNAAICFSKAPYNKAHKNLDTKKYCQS

[2] = molecular target: T1, High affinity choline transporter 1 (Homo sapiens, UniProt Q9GZV3); assay: human choline transporter blockers, potency – cell-based, 5-point CRC, membrane potential dye, dose response (AID 504840); type: functional
T1 sequence (Q9GZV3 whole entry): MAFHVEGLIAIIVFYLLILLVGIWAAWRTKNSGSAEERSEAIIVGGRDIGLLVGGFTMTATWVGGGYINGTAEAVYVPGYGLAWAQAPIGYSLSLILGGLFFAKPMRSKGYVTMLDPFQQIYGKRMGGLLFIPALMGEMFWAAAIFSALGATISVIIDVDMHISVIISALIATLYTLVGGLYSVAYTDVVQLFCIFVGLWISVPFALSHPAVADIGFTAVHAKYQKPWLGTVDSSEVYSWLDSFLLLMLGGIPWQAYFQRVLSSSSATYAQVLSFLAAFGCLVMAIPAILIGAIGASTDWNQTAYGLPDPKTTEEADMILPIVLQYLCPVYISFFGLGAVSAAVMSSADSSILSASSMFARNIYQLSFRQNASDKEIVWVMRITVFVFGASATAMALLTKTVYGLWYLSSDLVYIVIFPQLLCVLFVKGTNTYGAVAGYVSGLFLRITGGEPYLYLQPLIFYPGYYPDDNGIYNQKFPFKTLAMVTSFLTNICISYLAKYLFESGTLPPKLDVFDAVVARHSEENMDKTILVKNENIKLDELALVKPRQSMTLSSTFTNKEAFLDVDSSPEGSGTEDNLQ

[3] = molecular target: T1, High affinity choline transporter 1; assay: human choline transporter blockers, potency – cell-based, 10-point CRC, membrane potential dye, dose response (AID 588401); type: functional;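 note: membrane potential dye fluorescence of choline-evoked depolarization via CHT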
[4] = molecular target: T2, Beta-adrenergic receptor kinase 1 (Homo sapiens, UniProt P25098); assay: aptamer displacement from bead-bound GRK2 – biochemical, cherry pick 1, bead flow cytometry, dose response (AID 504500)
T2 sequence (P25098 whole entry): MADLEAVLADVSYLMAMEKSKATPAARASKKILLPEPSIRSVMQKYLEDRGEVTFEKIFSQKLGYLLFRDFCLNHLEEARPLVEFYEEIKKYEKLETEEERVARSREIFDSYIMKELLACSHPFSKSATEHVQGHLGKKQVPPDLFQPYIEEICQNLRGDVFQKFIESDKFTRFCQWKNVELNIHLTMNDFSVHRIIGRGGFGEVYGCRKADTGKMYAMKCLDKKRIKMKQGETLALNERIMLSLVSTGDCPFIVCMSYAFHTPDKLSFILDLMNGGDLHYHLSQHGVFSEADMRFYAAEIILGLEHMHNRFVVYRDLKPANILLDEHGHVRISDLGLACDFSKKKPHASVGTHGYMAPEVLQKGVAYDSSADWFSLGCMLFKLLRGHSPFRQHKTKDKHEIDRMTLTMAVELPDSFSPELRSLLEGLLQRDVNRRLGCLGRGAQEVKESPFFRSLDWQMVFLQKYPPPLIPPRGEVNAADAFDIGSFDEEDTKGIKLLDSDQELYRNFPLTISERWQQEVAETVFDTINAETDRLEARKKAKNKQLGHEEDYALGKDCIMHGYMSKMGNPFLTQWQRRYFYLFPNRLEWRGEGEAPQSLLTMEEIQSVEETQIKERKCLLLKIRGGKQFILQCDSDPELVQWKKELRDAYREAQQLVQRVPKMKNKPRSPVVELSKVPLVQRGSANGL

[5] = molecular target: T3, Carboxy-terminal domain RNA polymerase II polypeptide A small phosphatase 1 (Homo sapiens, UniProt Q9GZU7); assay: CTDSP1 inhibitors, concentration-response, biochemical, absorbance readout, ultra-high-throughput screen actives (AID 540297); type: functional
T3 sequence (Q9GZU7 whole entry): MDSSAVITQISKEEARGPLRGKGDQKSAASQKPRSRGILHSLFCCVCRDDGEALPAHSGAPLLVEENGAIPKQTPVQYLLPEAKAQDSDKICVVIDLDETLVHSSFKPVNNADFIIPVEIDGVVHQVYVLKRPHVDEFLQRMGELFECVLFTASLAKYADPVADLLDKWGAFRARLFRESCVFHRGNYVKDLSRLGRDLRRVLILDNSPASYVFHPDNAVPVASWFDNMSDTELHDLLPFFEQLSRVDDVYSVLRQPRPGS

Caspase-6 = molecular target: T4, Caspase-6 (Homo sapiens, UniProt P55212); assay: inhibition of CASP6 peptide cleavage – biochemical, VEID-R110 fluorescence, cherry-pick, dose response (AID 720632)
T4 sequence (P55212 whole entry): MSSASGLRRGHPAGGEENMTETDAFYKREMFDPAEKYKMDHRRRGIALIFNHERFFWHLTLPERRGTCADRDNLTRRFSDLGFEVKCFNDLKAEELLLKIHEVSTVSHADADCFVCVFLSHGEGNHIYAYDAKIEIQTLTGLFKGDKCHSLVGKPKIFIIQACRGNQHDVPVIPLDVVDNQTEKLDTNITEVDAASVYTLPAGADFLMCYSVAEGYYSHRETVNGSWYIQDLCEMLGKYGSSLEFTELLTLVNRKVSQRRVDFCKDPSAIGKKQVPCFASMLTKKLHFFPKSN

[6] = molecular target: Glucose-6-phosphate 1-dehydrogenase (Homo sapiens, UniProt P11413); assay: inhibition of Homo sapiens G6PD, dose series – biochemical, fluorescence, selectivity assay for P. falciparum G6PD inhibitor project, dose response (AID 504792); type: functional
Glucose-6-phosphate 1-dehydrogenase, sequence (P11413 whole entry): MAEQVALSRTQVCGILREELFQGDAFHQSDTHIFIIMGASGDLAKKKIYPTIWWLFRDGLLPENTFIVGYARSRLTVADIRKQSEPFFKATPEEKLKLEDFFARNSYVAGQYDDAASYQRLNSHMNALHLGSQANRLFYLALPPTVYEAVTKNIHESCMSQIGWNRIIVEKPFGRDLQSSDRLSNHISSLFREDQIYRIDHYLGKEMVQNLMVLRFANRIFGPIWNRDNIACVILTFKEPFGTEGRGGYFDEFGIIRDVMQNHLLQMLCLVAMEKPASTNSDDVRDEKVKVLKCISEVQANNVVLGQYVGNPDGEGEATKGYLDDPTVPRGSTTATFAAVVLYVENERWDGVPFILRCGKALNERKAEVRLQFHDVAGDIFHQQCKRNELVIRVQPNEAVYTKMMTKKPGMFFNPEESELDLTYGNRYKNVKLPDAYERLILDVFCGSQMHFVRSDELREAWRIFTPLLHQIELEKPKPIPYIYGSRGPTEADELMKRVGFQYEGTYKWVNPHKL

Melanocortin receptor 4 = Melanocortin receptor 4 (Homo sapiens, UniProt P32245); type: functional, cell-based;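 note: Cell-based assay with luminescence read-out, confirmatory dose-response testing for agonist activity of biased ligands at MC4R; human U2OS cells with tagged receptor and beta-arrestin; potency of agonists that increase receptor coupling to beta-arrestin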
Melanocortin receptor 4, sequence (P32245 whole entry): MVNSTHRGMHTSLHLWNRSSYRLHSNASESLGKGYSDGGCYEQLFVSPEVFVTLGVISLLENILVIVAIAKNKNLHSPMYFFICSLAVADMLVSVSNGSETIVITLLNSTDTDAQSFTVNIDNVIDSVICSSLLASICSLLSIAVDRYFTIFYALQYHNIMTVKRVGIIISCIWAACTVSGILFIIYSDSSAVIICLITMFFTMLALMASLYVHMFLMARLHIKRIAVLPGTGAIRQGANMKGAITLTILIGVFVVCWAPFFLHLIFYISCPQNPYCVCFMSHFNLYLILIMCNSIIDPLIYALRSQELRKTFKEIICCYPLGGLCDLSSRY

[7] = molecular target: Voltage-dependent T-type calcium channel subunit alpha-1H (Homo sapiens, UniProt O95180); type: functional;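 note: channel activity triggered by adding a high calcium stimulation buffer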
[8] = molecular target: DNA (cytosine-5)-methyltransferase 1 (Homo sapiens, UniProt P26358); assay: inhibition of DNA methylation by DNMT1 – biochemical, fluorescent molecular beacon, confirmation (AID 602386); type: functional
DNA (cytosine-5)-methyltransferase 1, sequence (P26358 whole entry): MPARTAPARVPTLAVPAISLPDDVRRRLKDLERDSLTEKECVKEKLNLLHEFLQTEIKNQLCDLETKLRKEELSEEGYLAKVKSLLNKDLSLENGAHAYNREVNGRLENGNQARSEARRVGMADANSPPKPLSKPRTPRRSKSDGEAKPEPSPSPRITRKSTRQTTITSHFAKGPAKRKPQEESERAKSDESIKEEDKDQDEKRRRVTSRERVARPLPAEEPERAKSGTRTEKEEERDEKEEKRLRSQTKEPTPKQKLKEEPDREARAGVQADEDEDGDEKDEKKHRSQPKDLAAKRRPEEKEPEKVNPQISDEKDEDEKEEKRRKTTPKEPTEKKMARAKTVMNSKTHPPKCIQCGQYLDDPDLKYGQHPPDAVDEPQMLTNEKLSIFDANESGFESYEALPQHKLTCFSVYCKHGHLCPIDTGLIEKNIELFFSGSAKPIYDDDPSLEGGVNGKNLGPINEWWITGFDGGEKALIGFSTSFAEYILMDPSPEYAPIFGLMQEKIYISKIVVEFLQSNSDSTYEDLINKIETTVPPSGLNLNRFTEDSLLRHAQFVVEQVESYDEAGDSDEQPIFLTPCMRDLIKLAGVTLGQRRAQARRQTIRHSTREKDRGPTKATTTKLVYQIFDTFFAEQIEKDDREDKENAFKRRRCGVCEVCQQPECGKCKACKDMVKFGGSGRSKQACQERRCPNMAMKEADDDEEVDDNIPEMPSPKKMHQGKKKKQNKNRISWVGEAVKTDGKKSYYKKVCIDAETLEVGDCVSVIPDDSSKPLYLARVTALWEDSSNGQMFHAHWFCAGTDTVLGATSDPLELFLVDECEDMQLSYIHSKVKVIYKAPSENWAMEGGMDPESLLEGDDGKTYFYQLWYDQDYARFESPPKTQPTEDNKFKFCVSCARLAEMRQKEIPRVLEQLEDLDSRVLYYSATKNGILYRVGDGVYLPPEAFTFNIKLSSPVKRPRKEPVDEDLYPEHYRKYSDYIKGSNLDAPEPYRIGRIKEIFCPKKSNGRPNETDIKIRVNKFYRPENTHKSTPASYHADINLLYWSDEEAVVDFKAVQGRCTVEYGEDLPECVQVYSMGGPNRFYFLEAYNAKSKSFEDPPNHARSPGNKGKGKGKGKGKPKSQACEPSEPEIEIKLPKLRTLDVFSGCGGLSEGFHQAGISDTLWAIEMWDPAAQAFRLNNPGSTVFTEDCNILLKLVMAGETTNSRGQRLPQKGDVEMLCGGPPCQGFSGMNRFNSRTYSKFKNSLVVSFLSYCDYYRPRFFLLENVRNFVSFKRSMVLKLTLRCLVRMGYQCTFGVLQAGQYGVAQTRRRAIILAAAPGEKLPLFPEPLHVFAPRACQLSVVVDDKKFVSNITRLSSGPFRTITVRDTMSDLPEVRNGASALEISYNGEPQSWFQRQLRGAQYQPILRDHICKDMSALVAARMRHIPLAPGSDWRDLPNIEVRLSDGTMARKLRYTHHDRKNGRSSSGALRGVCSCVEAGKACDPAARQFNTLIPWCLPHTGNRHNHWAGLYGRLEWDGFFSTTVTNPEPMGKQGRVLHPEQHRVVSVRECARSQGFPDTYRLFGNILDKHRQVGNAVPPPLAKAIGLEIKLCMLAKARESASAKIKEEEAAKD

[9] = molecular target: Tyrosine-protein phosphatase non-receptor type 11 (Homo sapiens, UniProt Q06124); assay: PTPN11 enzyme inhibitors – biochemical, selectivity assay for STEP inhibitor project, dose response (AID 602367); type: functional; conditions: read-out: IC50_Mean
Tyrosine-protein phosphatase non-receptor type 11, sequence (Q06124 whole entry): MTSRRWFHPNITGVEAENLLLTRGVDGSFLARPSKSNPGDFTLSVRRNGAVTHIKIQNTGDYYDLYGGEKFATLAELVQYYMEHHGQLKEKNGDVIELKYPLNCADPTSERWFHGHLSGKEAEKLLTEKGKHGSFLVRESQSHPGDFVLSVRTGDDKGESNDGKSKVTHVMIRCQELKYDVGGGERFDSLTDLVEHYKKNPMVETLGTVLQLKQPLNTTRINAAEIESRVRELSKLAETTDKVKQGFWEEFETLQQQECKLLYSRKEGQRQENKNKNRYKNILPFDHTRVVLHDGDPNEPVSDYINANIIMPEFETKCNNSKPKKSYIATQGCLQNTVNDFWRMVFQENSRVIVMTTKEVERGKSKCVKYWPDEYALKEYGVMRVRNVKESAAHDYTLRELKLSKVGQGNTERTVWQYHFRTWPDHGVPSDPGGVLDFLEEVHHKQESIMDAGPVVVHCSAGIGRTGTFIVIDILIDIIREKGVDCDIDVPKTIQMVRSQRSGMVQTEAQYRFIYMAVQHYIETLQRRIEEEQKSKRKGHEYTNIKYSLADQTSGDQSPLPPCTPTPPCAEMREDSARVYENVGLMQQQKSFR

[10] = molecular target: Tyrosine-protein phosphatase non-receptor type 5 (Homo sapiens, UniProt P54829); assay: PTPN5 enzyme inhibition – biochemical, fluorescence intensity, uHTS hits, confirmation (AID 602372); type: functional; conditions: read-out: IC50_Mean
Tyrosine-protein phosphatase non-receptor type 5, sequence (P54829 whole entry): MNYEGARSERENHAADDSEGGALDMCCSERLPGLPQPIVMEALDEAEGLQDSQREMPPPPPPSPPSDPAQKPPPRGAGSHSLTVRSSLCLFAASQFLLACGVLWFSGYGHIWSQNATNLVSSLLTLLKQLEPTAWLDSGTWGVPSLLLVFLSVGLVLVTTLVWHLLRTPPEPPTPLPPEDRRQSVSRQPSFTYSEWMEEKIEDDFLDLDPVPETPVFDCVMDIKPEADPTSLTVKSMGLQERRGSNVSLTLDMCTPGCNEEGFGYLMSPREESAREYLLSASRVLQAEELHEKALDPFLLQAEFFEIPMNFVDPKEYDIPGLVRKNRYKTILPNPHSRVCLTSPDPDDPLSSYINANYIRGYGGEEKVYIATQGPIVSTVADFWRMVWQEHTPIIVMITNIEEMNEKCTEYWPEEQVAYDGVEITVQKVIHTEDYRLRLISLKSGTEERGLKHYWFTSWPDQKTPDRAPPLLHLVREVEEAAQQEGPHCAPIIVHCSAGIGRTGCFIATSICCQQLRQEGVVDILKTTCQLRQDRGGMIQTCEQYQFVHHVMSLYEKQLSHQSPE

[11] = molecular target: Dual specificity protein phosphatase 3 (Homo sapiens, UniProt P51452); assay: VHR phosphatase inhibition, dose response, selectivity assay for STEP inhibitor project, biochemical (AID 602374); type: functional; conditions: read-out: IC50_Mean
Dual specificity protein phosphatase 3, sequence (P51452 whole entry): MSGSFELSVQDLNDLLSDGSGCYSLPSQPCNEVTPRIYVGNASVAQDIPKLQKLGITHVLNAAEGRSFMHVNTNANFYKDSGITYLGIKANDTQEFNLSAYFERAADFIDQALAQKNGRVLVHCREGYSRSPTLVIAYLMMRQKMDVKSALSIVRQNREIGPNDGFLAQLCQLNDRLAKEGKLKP

[12] = molecular target: DNA dC->dU-editing enzyme APOBEC-3A (Homo sapiens, UniProt P31941); assay: SAR analysis of small molecule inhibitors of APOBEC3A DNA Deaminase via a fluorescence-based single-stranded DNA deaminase assay - Set 2.; type: functional; conditions: read-out: IC50_Mean
DNA dC->dU-editing enzyme APOBEC-3A, sequence (P31941 whole entry): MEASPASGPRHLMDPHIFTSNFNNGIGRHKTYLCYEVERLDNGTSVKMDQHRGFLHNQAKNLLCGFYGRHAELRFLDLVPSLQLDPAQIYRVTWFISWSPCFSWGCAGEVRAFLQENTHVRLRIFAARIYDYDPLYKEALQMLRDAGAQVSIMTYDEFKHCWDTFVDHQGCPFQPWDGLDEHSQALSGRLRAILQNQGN

[13] = molecular target: DNA dC->dU-editing enzyme APOBEC-3G (Homo sapiens, UniProt Q9HC16); assay: SAR analysis of small molecule inhibitors of APOBEC3G DNA Deaminase via a fluorescence-based single-stranded DNA deaminase assay - Set 2.; type: functional; conditions: read-out: IC50_Mean
DNA dC->dU-editing enzyme APOBEC-3G, sequence (Q9HC16 whole entry): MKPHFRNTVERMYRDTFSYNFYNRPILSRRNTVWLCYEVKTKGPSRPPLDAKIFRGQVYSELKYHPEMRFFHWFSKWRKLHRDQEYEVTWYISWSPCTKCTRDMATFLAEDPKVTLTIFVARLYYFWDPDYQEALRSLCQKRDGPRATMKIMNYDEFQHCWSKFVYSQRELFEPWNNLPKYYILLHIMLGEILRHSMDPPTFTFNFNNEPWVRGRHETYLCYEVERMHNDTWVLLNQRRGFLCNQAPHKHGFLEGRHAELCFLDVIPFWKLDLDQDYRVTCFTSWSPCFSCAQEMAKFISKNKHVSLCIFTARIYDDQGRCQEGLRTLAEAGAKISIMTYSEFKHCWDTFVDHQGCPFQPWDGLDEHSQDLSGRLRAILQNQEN

[14] = THP-1 cell cytotoxicity, cytotoxicity control, set 4 (AID 504911); type: functional; conditions: Mycobacterium tuberculosis
[15] = molecular target: T5, Apoptotic protease-activating factor 1 (Homo sapiens, UniProt O14727); assay: SAR analysis of small molecule Activators of Apaf-1 in a Fluorescent assay.; type: functional; conditions: read-out: EC50_Mean;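 note: caspase-3 cleavage of fluorogenic Rh110 DEVD substrate downstream of apoptosome activation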
T5 sequence (O14727 whole entry): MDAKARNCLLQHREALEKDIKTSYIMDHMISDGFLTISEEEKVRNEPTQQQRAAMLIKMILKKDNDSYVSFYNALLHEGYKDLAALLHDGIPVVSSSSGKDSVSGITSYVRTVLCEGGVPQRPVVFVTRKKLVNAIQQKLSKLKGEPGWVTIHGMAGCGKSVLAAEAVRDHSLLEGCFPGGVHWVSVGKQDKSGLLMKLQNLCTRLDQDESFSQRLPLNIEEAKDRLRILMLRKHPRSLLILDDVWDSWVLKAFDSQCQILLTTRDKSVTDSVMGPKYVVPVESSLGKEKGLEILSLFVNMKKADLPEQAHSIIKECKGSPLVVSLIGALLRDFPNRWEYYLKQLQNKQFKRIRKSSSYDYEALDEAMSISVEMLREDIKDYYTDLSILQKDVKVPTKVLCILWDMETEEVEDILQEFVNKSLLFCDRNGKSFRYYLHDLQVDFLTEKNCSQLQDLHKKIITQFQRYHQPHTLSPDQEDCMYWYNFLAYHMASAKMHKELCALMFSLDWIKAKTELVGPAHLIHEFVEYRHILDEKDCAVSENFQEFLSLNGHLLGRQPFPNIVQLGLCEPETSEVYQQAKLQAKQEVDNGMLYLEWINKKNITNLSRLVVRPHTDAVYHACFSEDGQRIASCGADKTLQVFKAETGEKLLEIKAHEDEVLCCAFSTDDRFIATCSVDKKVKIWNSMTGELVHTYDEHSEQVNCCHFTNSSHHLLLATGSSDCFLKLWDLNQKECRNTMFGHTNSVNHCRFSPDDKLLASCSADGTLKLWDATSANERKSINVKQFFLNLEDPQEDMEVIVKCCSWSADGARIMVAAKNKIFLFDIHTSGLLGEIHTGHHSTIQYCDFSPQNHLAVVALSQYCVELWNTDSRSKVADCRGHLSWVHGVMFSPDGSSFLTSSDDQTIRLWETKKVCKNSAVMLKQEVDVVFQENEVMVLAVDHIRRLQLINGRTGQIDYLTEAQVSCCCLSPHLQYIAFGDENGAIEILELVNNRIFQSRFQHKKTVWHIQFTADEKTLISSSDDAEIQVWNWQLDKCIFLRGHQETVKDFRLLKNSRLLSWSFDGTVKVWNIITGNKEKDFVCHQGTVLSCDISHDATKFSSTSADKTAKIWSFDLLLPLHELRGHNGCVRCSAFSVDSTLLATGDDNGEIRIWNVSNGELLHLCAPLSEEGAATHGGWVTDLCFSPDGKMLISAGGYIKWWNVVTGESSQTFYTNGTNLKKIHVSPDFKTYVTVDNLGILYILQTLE

[16] = molecular target: T6, Aryl hydrocarbon receptor (Homo sapiens, UniProt P35869); conditions: Potency;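 note: confirmatory quantitative high-throughput screen measuring activation of the AhR signaling pathway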
T6 sequence (P35869 whole entry): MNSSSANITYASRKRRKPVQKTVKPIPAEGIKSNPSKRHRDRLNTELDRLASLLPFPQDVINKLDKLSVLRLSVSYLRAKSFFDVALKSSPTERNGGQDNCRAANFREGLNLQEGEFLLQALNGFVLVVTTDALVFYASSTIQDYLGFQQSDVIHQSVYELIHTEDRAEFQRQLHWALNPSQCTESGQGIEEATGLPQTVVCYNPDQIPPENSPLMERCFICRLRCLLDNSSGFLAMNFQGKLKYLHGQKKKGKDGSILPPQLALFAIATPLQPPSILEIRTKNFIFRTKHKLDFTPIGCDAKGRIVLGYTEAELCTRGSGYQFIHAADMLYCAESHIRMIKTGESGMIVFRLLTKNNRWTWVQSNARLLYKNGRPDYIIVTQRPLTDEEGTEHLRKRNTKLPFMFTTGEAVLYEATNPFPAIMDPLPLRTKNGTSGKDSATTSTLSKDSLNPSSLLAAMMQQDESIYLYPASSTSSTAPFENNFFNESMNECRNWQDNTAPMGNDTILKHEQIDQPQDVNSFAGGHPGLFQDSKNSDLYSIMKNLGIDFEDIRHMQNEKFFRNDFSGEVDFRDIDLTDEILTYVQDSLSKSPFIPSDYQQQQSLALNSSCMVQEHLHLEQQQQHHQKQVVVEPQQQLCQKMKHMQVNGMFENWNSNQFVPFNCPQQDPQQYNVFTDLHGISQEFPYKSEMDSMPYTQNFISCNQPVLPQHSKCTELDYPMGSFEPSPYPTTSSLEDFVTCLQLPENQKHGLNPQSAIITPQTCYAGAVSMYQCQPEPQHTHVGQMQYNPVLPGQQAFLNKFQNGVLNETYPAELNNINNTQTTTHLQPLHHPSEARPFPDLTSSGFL

## O=C(CCCn1c(=S)[nH]c2cc3c(cc2c1=O)OCO3)N1CCN(c2ccc(F)cc2)CC1
[1]
  CC50: 26.2 µM (active)
Cysteine protease ATG4B
  IC50: 13.5 µM (active)
Phospholipase A2
  IC50: 7.34 µM (active)

## CCn1cc(C(=O)NCCCN2CCC(C)CC2)c(=O)c2cc(S(=O)(=O)N(C)C3CCCCC3)ccc21
[2]
  IC50: 7.24 µM (active)
[3]
  IC50: 7.94 µM (active)

## CCOc1ccc(CCNC(=O)C2CC(C)=CCC2C(=O)O)cc1OCC (configuration not stated)
[4]
  EC50: 51.3 µM (inactive)
[5]
  IC50: 21 µM (active)
Caspase-6
  AC50: 15.5 µM (active)

## Clc1cccc(Cl)c1CNc1ccc(N2CCCC2)cc1
[6]
  IC50: > 80 µM (inactive)
Cysteine protease ATG4B
  IC50: 11.9 µM (active)
Phospholipase A2
  IC50: 7.99 µM (active)

## Cc1ccc2[nH]c(=O)c3cc(C(=O)N(CCCOC(C)C)Cc4ccco4)sc3c2c1
Melanocortin receptor 4
  EC50: > 89.2 µM (inactive)

## O=C(Nc1nnc(C(F)(F)F)s1)C1COc2ccccc2O1 (configuration not stated)
[7]
  EC50: 6.26 µM (active)
[2]
  IC50: 1.55 µM (active)
[3]
  IC50: 1.26 µM (active)

## COc1cc(/C=C(\CCC(=O)O)c2nc3ccccc3s2)ccc1OCC(=O)Nc1c(Cl)cccc1Cl
[5]
  IC50: 2.3 µM (active)
[8]
  IC50: 10.1 µM (active)

## CCCN(CC(=O)Nc1ccccc1OC)C(=O)Cc1ccc2c(c1)CCC2
[9]
  IC50: 4.79 µM (active)
[10]
  IC50: 19.5 µM (active)
[11]
  IC50: 1.32 µM (active)

## CN(Cc1ccccc1)C(=O)c1nn2cccnc2c1Cl
[12]
  IC50: 73.8 µM (inactive)
[13]
  IC50: > 99 µM (inactive)

## O=C(CSc1nccc(=O)[nH]1)NC1CCCCC1
[14]
  CC50: > 100 µM (active)

## COC(=O)C(C)(N)Cc1c[nH]c2ccccc12 (configuration not stated)
[15]
  EC50: > 100 µM (inactive)

## Cc1nc2sc3c(c2c2n[nH]c(=S)n12)CCCC3
[12]
  IC50: > 99 µM (inactive)
[13]
  IC50: 0.693 µM (active)

## N[C@@H](Cc1c[nH]c2ccc(O)cc12)C(=O)O [OXITRIPTAN]
[16]
  AC50: 39.8 µM (inconclusive)
